Common to all, as to assay: NCI anticancer screen, dose series, 48 h
Experiment [1] deals with SF-268.
Experiment [2] concerns PC-3.
In experiment [3] the test system is OVCAR-8.
Experiment [4] concerns ACHN.
For experiment [5], the system named is SN12C.
Experiment [6] concerns MDA-MB-435.
Experiment [7] has as its system NCI-H522.
For experiment [8], the system named is U-251.
For experiment [9], the system named is HCT-15.
Experiment [10] deals with UACC-62.
Experiment [11] relates to SNB-19.
Experiment [12] concerns HOP-92.
Experiment [13] relates to CAKI-1.
The test system of experiment [14] is EKVX.
The test system of experiment [15] is SNB-75.
For experiment [16], the system named is SK-OV-3.
In experiment [17] the test system is NCI-H23.
For experiment [18], the system named is COLO 205.
Experiment [19] has as its system Malme-3M.
For experiment [20], the system named is HL-60.

Molecules are shown by their SMILES.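 Briefly, cells in 96-well plates were exposed to five compound concentrations for 48 h, and endpoints were estimated by linear interpolation. GI50 is the concentration that inhibits growth by half.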 Calls of active or inactive are those of the source. Rule as the data show it: active = GI50 up to about 1.1 µM and inactive = higher.

`Nc1ccc(-c2ncc3cc(-c4cccc(-c5cc6cnc(-c7ccc(N)cc7)nc6c6ccccc56)c4)c4ccccc4c3n2)cc1`: the GI50 in experiment [1], in [2], in experiment [3], in experiment [4], in experiment [5] and in [6] was > 100 µM (inactive) in each case. In addition, the GI50 in experiment [7] is > 100 µM (inactive); in experiment [8], > 100 µM (inactive); in experiment [9], above 100 µM; in experiment [10], > 100 µM (inactive); in experiment [11] it was > 100 µM (inactive); in [12], > 100 µM (inactive). The GI50 in experiment [13] was > 100 µM (inactive); in experiment [14], > 100 µM (inactive); in experiment [15], > 100 µM (inactive); in experiment [16], > 100 µM (inactive); in [17], > 100 µM (inactive); in [18], 35.3 µM (inactive).

With `Cc1cccc(CC(Cc2c(C)cccc2C(=O)O)C(=O)O)c1` (stereo not drawn), the GI50 in [1], in experiment [2], in [3], in experiment [4], in experiment [5] and in experiment [6] was > 100 µM (inactive) throughout. Moreover, the GI50 in experiment [7] was > 100 µM (inactive); in [8] it was > 100 µM (inactive); in [9], 31.3 µM; in experiment [10], 0.0875 µM (active); in experiment [19] it was > 100 µM (inactive); in experiment [11], > 100 µM (inactive). In addition, the GI50 in [20], in experiment [13], in [14], in experiment [15], in experiment [16] and in [17] was > 100 µM (inactive) throughout. Also, the GI50 in experiment [18] was > 100 µM (inactive).

For `Cn1cnc(N2CCCC2)c(C#N)c1=S`, the GI50 in [1], in experiment [2], in experiment [3], in experiment [4], in [5] and in [6] was > 100 µM (inactive) in each case. For the same molecule, the GI50 in [7] is > 100 µM (inactive); in experiment [8], > 100 µM (inactive); in experiment [9], above 100 µM; in [10], > 100 µM (inactive); in experiment [19], > 100 µM (inactive); in [11], > 100 µM (inactive). In addition, the GI50 was > 100 µM (inactive) in [20]; 76.2 µM (inactive) in experiment [12]; 35.9 µM (inactive) in experiment [13]; 94.4 µM (inactive) in experiment [14]; > 100 µM (inactive) in [17]; > 100 µM (inactive) in experiment [18].

Consider `CCN1CCC(O)(c2ccc([N+](=O)[O-])cc2)C(C(=O)c2ccc([N+](=O)[O-])cc2)C1` (stereo not drawn), for which the GI50 in experiment [1] is 21 µM (inactive); in experiment [2] it was 26.6 µM (inactive); in experiment [3] it was 30.1 µM (inactive); in experiment [4], 17.8 µM (inactive); in experiment [5], 21.1 µM (inactive); in [6] it was 20.5 µM (inactive). Besides, the GI50 in [7] is 3.33 µM (inactive); in experiment [8], 29.2 µM (inactive); in experiment [9], 21.3 µM; in experiment [10], 18.2 µM (inactive); in experiment [19] it was 20.1 µM (inactive); in experiment [11], 95.1 µM (inactive). Also, the GI50 in experiment [20] was 41.5 µM (inactive); in experiment [13], 22.3 µM (inactive); in experiment [14], 18.9 µM (inactive); in experiment [15] it was 34.5 µM (inactive); in experiment [16], > 100 µM (inactive); in experiment [17], 19.5 µM (inactive). In [18], the GI50 is 13.8 µM (inactive).

Turning to `O=C1CCCN1C(=O)CS(=O)(=O)c1ccccc1`, the GI50 in experiment [1], in experiment [2], in experiment [3], in experiment [4], in experiment [5] and in [6] was > 100 µM (inactive) each time. The GI50 in experiment [7] was > 100 µM (inactive); in experiment [8], > 100 µM (inactive); in experiment [9] it was above 100 µM; in [10], > 100 µM (inactive); in experiment [19], > 100 µM (inactive); in [11] it was > 100 µM (inactive). Moreover, the GI50 in experiment [12], in [13], in experiment [15], in experiment [16], in [17] and in experiment [18] was > 100 µM (inactive) each time.

As to `Nc1cccc(C#Cc2cccc(C#Cc3cccc(N)n3)n2)n1`, the GI50 is > 100 µM (inactive) in experiment [1]; > 100 µM (inactive) in [2]; > 100 µM (inactive) in [3]; > 100 µM (inactive) in experiment [4]; 79.3 µM (inactive) in experiment [5]; 89.9 µM (inactive) in experiment [6]. Moreover, the GI50 is > 100 µM (inactive) in experiment [7]; > 100 µM (inactive) in [8]; above 100 µM in experiment [9]; > 100 µM (inactive) in experiment [10]; > 100 µM (inactive) in [11]; > 100 µM (inactive) in experiment [12]. Further, the GI50 in experiment [13], in experiment [14], in [15], in [16], in experiment [17] and in [18] was > 100 µM (inactive) in each case.

`CCCCSCc1nc2nc(Cl)c(Cl)nc2[nH]1`: the GI50 in experiment [1] is 35.6 µM (inactive); in [2] it was 31.6 µM (inactive); in [3], 34.9 µM (inactive); in [4], 23.9 µM (inactive); in [5] it was 22.1 µM (inactive); in experiment [6], 33.5 µM (inactive). The GI50 was 17.8 µM (inactive) in experiment [7]; 20.9 µM (inactive) in experiment [8]; 23.4 µM in experiment [9]; 10.5 µM (inactive) in [10]; 20.3 µM (inactive) in experiment [19]; 35.3 µM (inactive) in experiment [11]. For the same molecule, the GI50 in experiment [12] is 24.5 µM (inactive); in experiment [13], 23.7 µM (inactive); in experiment [14], 33.3 µM (inactive); in experiment [15], 19 µM (inactive); in experiment [16], 18.7 µM (inactive); in experiment [17] it was 16.8 µM (inactive). The GI50 in experiment [18] was 21.3 µM (inactive).

For `NCCCn1c2ccccc2c2c3c(c4c(c21)CCC(O)CC4)C(=O)NC3=O` (stereo not drawn), the GI50 is 1.58 µM (inactive) in experiment [1]; 3.48 µM (inactive) in experiment [2]; 5.01 µM (inactive) in experiment [3]; 1.79 µM (inactive) in experiment [4]; 2.42 µM (inactive) in experiment [5]; 1.53 µM (inactive) in [6]. The GI50 is 2.44 µM (inactive) in [7]; 1.75 µM (inactive) in [8]; 11 µM in experiment [9]; 4.12 µM (inactive) in experiment [10]; 2.14 µM (inactive) in experiment [19]; 9.12 µM (inactive) in [20]. Moreover, the GI50 in [12] is 2.71 µM (inactive); in experiment [13], 3.66 µM (inactive); in experiment [14], 9.18 µM (inactive); in experiment [17] it was 2.45 µM (inactive).

For the molecule `COc1cc(C=O)ccc1Oc1nnnn1-c1ccccc1`, the GI50 was 42.7 µM (inactive) in experiment [1]; 82.4 µM (inactive) in [2]; 66.2 µM (inactive) in experiment [3]; > 100 µM (inactive) in experiment [5]; 36.4 µM (inactive) in experiment [6]; > 100 µM (inactive) in [7]. In addition, the GI50 is 85.3 µM (inactive) in [8]; 62.5 µM in experiment [9]; 84.1 µM (inactive) in experiment [19]; 54.8 µM (inactive) in experiment [11]; 71.4 µM (inactive) in [12]; 31.3 µM (inactive) in [13]. Further, the GI50 in [14] was > 100 µM (inactive); in experiment [15] it was 34.8 µM (inactive); in [16], > 100 µM (inactive); in [17], 46 µM (inactive); in experiment [18], > 100 µM (inactive).

Turning to `COc1cc([N+](=O)[O-])c(S(=O)(=O)O)cc1N`, the GI50 in [1], in experiment [2], in [3], in [4], in experiment [5] and in experiment [6] was > 100 µM (inactive) each time. The GI50 in experiment [7] is > 100 µM (inactive); in [8] it was > 100 µM (inactive); in experiment [9] it was above 100 µM; in experiment [10], > 100 µM (inactive); in experiment [11], > 100 µM (inactive); in experiment [20], > 100 µM (inactive). The GI50 in experiment [13], in experiment [14], in experiment [15], in experiment [16], in [17] and in [18] was > 100 µM (inactive) in each case.

Take `COc1ccc(-c2c(C#N)c(-c3ccc(C)cc3)n(NS(=O)(=O)c3ccc(C)cc3)c(=O)c2C#N)cc1`: the GI50 in experiment [1] was 56.6 µM (inactive); in [2] it was 36.6 µM (inactive); in experiment [3] it was 72.3 µM (inactive); in experiment [4] it was 50.6 µM (inactive); in experiment [5], 66.2 µM (inactive); in experiment [6], 65.9 µM (inactive). For the same molecule, the GI50 is 80.7 µM (inactive) in [7]; 53.6 µM (inactive) in [8]; 60.3 µM in experiment [9]; 43.6 µM (inactive) in experiment [10]; > 100 µM (inactive) in experiment [19]; 47.4 µM (inactive) in [11]. Besides, the GI50 in [12] is 74.6 µM (inactive); in experiment [13] it was 63.7 µM (inactive); in experiment [14], 53.5 µM (inactive); in experiment [15], 31.2 µM (inactive); in [16], 70.5 µM (inactive); in experiment [18] it was 90.2 µM (inactive).
